A word on the Ki: it is a measure of affinity in units of concentration, obtained from inhibition or displacement.

The record followed here is patent publication US7638639B2, “Substituted pyrrolidine and related compounds” (Theravance, Inc., priority 2003, dated 2009).

For the assay, the target named is T1, hM2 receptor (Homo sapiens, UniProt P08172).
T1 construct: expressed in transfected cells
T1 sequence (P08172 1-466): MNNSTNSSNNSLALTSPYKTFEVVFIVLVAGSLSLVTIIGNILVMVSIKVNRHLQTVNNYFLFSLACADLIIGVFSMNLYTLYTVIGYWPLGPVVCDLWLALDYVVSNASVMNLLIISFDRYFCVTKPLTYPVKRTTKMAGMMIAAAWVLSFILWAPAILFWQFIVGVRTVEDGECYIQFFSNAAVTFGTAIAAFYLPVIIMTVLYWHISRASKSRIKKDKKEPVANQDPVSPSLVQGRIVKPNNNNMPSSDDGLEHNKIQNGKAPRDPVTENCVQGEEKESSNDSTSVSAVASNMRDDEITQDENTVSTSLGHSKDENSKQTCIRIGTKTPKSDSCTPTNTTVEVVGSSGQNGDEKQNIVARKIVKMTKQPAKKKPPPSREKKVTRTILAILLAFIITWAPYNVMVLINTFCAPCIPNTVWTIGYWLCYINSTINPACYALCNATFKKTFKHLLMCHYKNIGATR
As to the kind of experiment: Blockade of agonist-mediated inhibition of cAMP accumulation. It is filed as cell-based. Conditions: CHO-K1 cells expressing the hM2 receptor; read-out: Ki for blockade of oxotremorine-inhibition of forskolin-mediated cAMP accumulation. On the procedure:
A. Blockade of Agonist-Mediated Inhibition of cAMP Accumulation
In this assay, the functional potency of a test compound was determined by measuring the ability of the test compound to block oxotremorine-inhibition of forskolin-mediated cAMP accumulation in CHO-K^1 cells expressing the hM2 receptor.
cAMP assays were performed in a radioimmunoassay format using the Flashplate Adenylyl Cyclase Activation Assay System with ^125I-cAMP (NEN SMP004B, PerkinElmer Life Sciences Inc., Boston, Mass.), according to the manufacturer's instructions.
Cells were rinsed once with dPBS and lifted with […] (0.05% trypsin/[…]) as described in the Cell Culture and Membrane Preparation section above. […] The cell pellet was then re-suspended in 10 mL dPBS, and the cells were counted with a Coulter Z1 Dual Particle Counter (Beckman Coulter, Fullerton, Calif.). […]
Reactions were incubated for 10 minutes at 37° C. and stopped by addition of 100 μL ice-cold detection buffer. Plates were sealed, incubated overnight at room temperature and counted the next morning on a PerkinElmer TopCount liquid scintillation counter (PerkinElmer Inc., Wellesley, Mass.). The amount of cAMP produced (pmol/well) was calculated based on the counts observed for the samples and cAMP standards, as described in the manufacturer's user manual. […]
(In general: Changes in cAMP serve as a functional read-out for many G protein-coupled receptors.)

Molecules are shown by their SMILES.

Turning to `CNCCCCCCCCN1CC[C@@H](C(C(N)=O)(c2ccccc2)c2ccccc2)C1` [Example 1, 2-[(S)-1-(8-Methylaminooctyl)pyrrolidin-3-yl]-2,2-diphenylacetamide], the Ki was less than 5 nM.
